According to US11001572B2, “Pyrimidine derivative, method for preparing same and use thereof in medicine” (Zhejiang Hisun Pharmaceutical Co., Ltd., priority 2016, dated 2021):

What was measured:
[1] = Body weight and weight loss rate of Huh7 tumor-bearing mice during administration; format: in vivo, BALB/c nude mice; settings: 25 mg/kg (IP, bid), 50 mg/kg (IP, bid) and 300 mg/kg (PO, bid); within 22 days
Experimental: (§1) Each group of animals was administrated (intraperitoneal injection (ip) or oral administration (po)) a test substance twice a day (bid) at a fix time per day according to the body weight of the animals. The first dose was administered on the day of grouping ([…]), and continued for 22 days, the body weight of the animals was recorded daily.
The calculation formula for the weight loss rate of animals is (see FIG. 3 for the results): Weight loss rate of animals=100%×(BWinitial−BWt)/BWinitial
wherein, BWt represents the body weight of the animal at each measurement during administration; BWinitial represents the body weight of the animal at the time of grouping administration.

[2] = tested on: Huh7 tumor-bearing BALB/c nude mice xenografts; experiment: Growth inhibition of Huh7 xenografts in BALB/c nude mice; format: in vivo; settings: 25 mg/kg IP, bid
Experimental: On day 0, Huh7 cells were cultured in DMEM medium containing 10% of fetal bovine serum, 100 U of penicillin, and 100 μg/mL of streptomycin. And cultured in an incubator of 37° C., 5% CO2.
Each mouse was inoculated subcutaneously in the right axilla with 150 μL of cell suspension (5.0×10^6 cells/mouse) under sterile conditions. On day 12 after inoculation, when the tumor grew to a volume of 200-300 mm^3, mice with similar tumor volume and good shape were selected (the shape was as single spherical as possible, no irregular shape or multiple tumors gathered together) and divided into 5 groups, each group had 9 mice.
as §1
The formation of tumor in the inoculated part of each group of animals was observed. The long diameter (Y) and short diameter (X) of the tumor nodules were measured twice a week using vernier calipers and calculated according to the following formula: Volume of tumor nodules(V):V=(X^2Y)/2.
Evaluation index of antitumor activity: tumor growth inhibition rate TGI (%), relative tumor proliferation rate T/C (%).
The relative tumor volume (RTV) is calculated as: RTV=100×TVt/TVinitial
The calculation formula for the relative tumor proliferation rate (% T/C) is: % T/C=100%×(RTVT/RTVC)

C=CC(=O)Nc1cc(N2CCN(CC)C3(CC3)C2)ccc1Nc1cc(N(C)C(=O)Nc2c(Cl)c(OC)cc(OC)c2Cl)ncn1 [Example 5, N-(2-((6-(3-(2,6-Dichloro-3,5-dimethoxyphenyl)-1-methylureido)pyrimidin-4-yl)amino)-5-(4-ethyl-4,7-diazaspiro[2.5]octan-7-yl)phenyl)acrylamide]
body weight change [1]: no significant body weight change

C=CC(=O)Nc1cc(N2CCN(CC)CC2)ccc1Nc1cc(N(C)C(=O)Nc2c(Cl)c(OC)cc(OC)c2Cl)ncn1 [Example 108 of WO2015057938]
Tumor growth inhibition rate (TGI %) ([2]; Day 16 after inoculation): 34% | Tumor growth inhibition rate (TGI %) ([2]; Day 20 after inoculation): 21% | Tumor growth inhibition rate (TGI %) ([2]; Day 23 after inoculation): 21% | Tumor growth inhibition rate (TGI %) ([2]; Day 27 after inoculation): 29% | Tumor growth inhibition rate (TGI %) ([2]; Day 30 after inoculation): 24% | Tumor growth inhibition rate (TGI %) ([2]; Day 34 after inoculation): 16% | Tumor weight inhibition rate (%) ([2]; end of the experiment): 2.2%
